# ChEMBL document CHEMBL4390652, “Design, biological evaluation and X-ray crystallography of nanomolar multifunctional ligands targeting simultaneously acetylcholinesterase and glycogen synthase kinase-3” (Eur J Med Chem, 2019)
# Experiments:
# [1] = test system: Tyrosine-protein kinase ABL1 (Homo sapiens), P00519 [F317L]; experiment: Binding affinity to human non-phosphorylated ABL1 F317L mutant (S229 to K512 residues) expressed in mammalian expression system assessed as residual binding level at 10 uM by Kinomescan method relative to control
# [2] = test system: ALK tyrosine kinase receptor (Homo sapiens), Q9UM73 [L1196M]; experiment: Binding affinity to wild-type human partial length ALK L1196M mutant (I1088 to E1409 residues) expressed in mammalian expression system assessed as residual binding level at 10 uM by Kinomescan method relative to control
# [3] = biological target: Dual specificity protein kinase CLK2 (Homo sapiens) (UniProt P49760); experiment: Binding affinity to wild-type human partial length CLK2 (D144 to R498 residues) expressed in bacterial expression system assessed as residual binding level at 10 uM by Kinomescan method relative to control
# [4] = biological target: Tyrosine-protein kinase CSK (Homo sapiens) (UniProt P41240); experiment: Binding affinity to wild-type human full length CSK (M1 to L450 residues) expressed in bacterial expression system assessed as residual binding level at 10 uM by Kinomescan method relative to control
# [5] = biological target: Dual specificity tyrosine-phosphorylation-regulated kinase 2 (Homo sapiens) (UniProt Q92630); experiment: Binding affinity to wild-type human full length DYRK2 (M1 to S528 residues) expressed in mammalian expression system assessed as residual binding level at 10 uM by Kinomescan method relative to control
# [6] = test system: Epidermal growth factor receptor (Homo sapiens), P00533 [L861Q]; experiment: Binding affinity to human partial length EGFR L861Q mutant (R669 to V1011 residues) expressed in bacterial expression system assessed as residual binding level at 10 uM by Kinomescan method relative to control
# [7] = biological target: Vascular endothelial growth factor receptor 1 (Homo sapiens) (UniProt P17948); experiment: Binding affinity to wild-type human partial length FLT1 (R781 to F1239 residues) expressed in bacterial expression system assessed as residual binding level at 10 uM by Kinomescan method relative to control
# [8] = biological target: Homeodomain-interacting protein kinase 1 (Homo sapiens) (UniProt Q86Z02); experiment: Binding affinity to wild-type human partial length HIPK1 (M146 to I555 residues) expressed in mammalian expression system assessed as residual binding level at 10 uM by Kinomescan method relative to control
# [9] = biological target: Tyrosine-protein kinase JAK3 (Homo sapiens) (UniProt P52333); experiment: Binding affinity to wild-type human partial length JAK3 JH1 catalytic domain (I781 to S1124 residues) expressed in mammalian expression system assessed as residual binding level at 10 uM by Kinomescan method relative to control
# [10] = biological target: Dual specificity mitogen-activated protein kinase kinase 4 (Homo sapiens) (UniProt P45985); experiment: Binding affinity to wild-type human partial length MEK4 (S84 to D399 residues) expressed in mammalian expression system assessed as residual binding level at 10 uM by Kinomescan method relative to control
# [11] = biological target: Dual specificity mitogen-activated protein kinase kinase 6 (Homo sapiens) (UniProt P52564); experiment: Binding affinity to wild-type human partial length MEK6 (K36 to D334 residues) expressed in bacterial expression system assessed as residual binding level at 10 uM by Kinomescan method relative to control
# [12] = biological target: Tyrosine-protein kinase Mer (Homo sapiens) (UniProt Q12866); experiment: Binding affinity to wild-type human partial length MERTK (R557 to L884 residues) expressed in bacterial expression system assessed as residual binding level at 10 uM by Kinomescan method relative to control
# [13] = biological target: Serine/threonine-protein kinase Nek3 (Homo sapiens) (UniProt P51956); experiment: Binding affinity to wild-type human full length NEK3 (M1 to R506 residues) expressed in mammalian expression system assessed as residual binding level at 10 uM by Kinomescan method relative to control
# [14] = biological target: Serine/threonine-protein kinase PAK 3 (Homo sapiens) (UniProt O75914); experiment: Binding affinity to wild-type human full length PAK3 (M1 to R544 residues) expressed in bacterial expression system assessed as residual binding level at 10 uM by Kinomescan method relative to control
# [15] = test system: Phosphatidylinositol 4,5-bisphosphate 3-kinase catalytic subunit alpha isoform (Homo sapiens), P42336 [Q546K]; experiment: Binding affinity to human partial length PIK3CA Q546K mutant (R108 to N1068 residues) expressed in mammalian expression system assessed as residual binding level at 10 uM by Kinomescan method relative to control
# [16] = biological target: Phosphatidylinositol 5-phosphate 4-kinase type-2 beta (Homo sapiens) (UniProt P78356); experiment: Binding affinity to wild-type human full length PIP5K2B (M1 to T416 residues) expressed in bacterial expression system assessed as residual binding level at 10 uM by Kinomescan method relative to control
# [17] = biological target: Serine/threonine-protein kinase PLK2 (Homo sapiens) (UniProt Q9NYY3); experiment: Binding affinity to wild-type human partial length PLK2 (H58 to F354 residues) expressed in mammalian expression system assessed as residual binding level at 10 uM by Kinomescan method relative to control
# [18] = biological target: cGMP-dependent protein kinase 1 (Homo sapiens) (UniProt Q13976); experiment: Binding affinity to wild-type human partial length PRKG1 (L339 to F686 residues) expressed in bacterial expression system assessed as residual binding level at 10 uM by Kinomescan method relative to control
# [19] = biological target: Proto-oncogene tyrosine-protein kinase ROS (Homo sapiens) (UniProt P08922); experiment: Binding affinity to wild-type human partial length ROS1 (A1921 to N2240 residues) expressed in bacterial expression system assessed as residual binding level at 10 uM by Kinomescan method relative to control
# [20] = biological target: Tyrosine-protein kinase Srms (Homo sapiens) (UniProt Q9H3Y6); experiment: Binding affinity to wild-type human partial length SRMS (L208 to P488 residues) expressed in mammalian expression system assessed as residual binding level at 10 uM by Kinomescan method relative to control
# [21] = biological target: Serine/threonine-protein kinase tousled-like 1 (Homo sapiens) (UniProt Q9UKI8); experiment: Binding affinity to wild-type human partial length TLK1 (K447 to A754 residues) expressed in bacterial expression system assessed as residual binding level at 10 uM by Kinomescan method relative to control
# [22] = biological target: Serine/threonine-protein kinase ULK1 (Homo sapiens) (UniProt O75385); experiment: Binding affinity to wild-type human partial length ULK1 (M1 to T309 residues) expressed in mammalian expression system assessed as residual binding level at 10 uM by Kinomescan method relative to control
# [23] = biological target: Serine/threonine-protein kinase WNK4 (Homo sapiens) (UniProt Q96J92); experiment: Binding affinity to wild-type human partial length WNK4 (A31 to D461 residues) expressed in mammalian expression system assessed as residual binding level at 10 uM by Kinomescan method relative to control
# [24] = biological target: Tyrosine-protein kinase ZAP-70 (Homo sapiens) (UniProt P43403); experiment: Binding affinity to wild-type human partial length ZAP70 (D20 to G299 residues) expressed in mammalian expression system assessed as residual binding level at 10 uM by Kinomescan method relative to control
# [25] = test system: MDR1; experiment: in vitro; details: dog, MDCK-MDR1
# Description: Apparent permeability across apical to basolateral side in MDCK2-MDR1 cells by HPLC analysis
# Serine/threonine-protein kinase tousled-like 1 (Homo sapiens), sequence (Q9UKI8 whole entry, the tested form may be a part): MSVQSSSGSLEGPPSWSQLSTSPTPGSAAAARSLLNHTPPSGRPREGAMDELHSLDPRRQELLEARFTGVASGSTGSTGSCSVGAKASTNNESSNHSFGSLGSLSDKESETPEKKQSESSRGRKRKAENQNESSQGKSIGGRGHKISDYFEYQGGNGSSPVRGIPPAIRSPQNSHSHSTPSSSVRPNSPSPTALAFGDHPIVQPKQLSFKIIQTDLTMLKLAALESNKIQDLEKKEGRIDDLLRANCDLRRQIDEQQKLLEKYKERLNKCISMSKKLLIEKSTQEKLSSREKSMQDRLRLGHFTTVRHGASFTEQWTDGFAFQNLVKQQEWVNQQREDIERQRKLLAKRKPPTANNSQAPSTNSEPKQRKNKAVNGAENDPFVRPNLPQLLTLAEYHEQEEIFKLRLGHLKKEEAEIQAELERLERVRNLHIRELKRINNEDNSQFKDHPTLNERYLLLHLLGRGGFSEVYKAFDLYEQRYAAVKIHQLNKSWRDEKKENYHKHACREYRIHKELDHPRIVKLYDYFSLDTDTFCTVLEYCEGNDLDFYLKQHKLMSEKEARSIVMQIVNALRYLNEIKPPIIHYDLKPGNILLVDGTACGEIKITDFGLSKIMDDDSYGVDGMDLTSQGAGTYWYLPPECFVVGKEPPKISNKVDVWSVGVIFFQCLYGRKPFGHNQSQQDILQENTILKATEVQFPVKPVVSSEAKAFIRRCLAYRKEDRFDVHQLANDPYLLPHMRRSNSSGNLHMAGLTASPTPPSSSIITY
# Homeodomain-interacting protein kinase 1 (Homo sapiens), sequence (Q86Z02 whole entry, looked up, the tested form may be a part): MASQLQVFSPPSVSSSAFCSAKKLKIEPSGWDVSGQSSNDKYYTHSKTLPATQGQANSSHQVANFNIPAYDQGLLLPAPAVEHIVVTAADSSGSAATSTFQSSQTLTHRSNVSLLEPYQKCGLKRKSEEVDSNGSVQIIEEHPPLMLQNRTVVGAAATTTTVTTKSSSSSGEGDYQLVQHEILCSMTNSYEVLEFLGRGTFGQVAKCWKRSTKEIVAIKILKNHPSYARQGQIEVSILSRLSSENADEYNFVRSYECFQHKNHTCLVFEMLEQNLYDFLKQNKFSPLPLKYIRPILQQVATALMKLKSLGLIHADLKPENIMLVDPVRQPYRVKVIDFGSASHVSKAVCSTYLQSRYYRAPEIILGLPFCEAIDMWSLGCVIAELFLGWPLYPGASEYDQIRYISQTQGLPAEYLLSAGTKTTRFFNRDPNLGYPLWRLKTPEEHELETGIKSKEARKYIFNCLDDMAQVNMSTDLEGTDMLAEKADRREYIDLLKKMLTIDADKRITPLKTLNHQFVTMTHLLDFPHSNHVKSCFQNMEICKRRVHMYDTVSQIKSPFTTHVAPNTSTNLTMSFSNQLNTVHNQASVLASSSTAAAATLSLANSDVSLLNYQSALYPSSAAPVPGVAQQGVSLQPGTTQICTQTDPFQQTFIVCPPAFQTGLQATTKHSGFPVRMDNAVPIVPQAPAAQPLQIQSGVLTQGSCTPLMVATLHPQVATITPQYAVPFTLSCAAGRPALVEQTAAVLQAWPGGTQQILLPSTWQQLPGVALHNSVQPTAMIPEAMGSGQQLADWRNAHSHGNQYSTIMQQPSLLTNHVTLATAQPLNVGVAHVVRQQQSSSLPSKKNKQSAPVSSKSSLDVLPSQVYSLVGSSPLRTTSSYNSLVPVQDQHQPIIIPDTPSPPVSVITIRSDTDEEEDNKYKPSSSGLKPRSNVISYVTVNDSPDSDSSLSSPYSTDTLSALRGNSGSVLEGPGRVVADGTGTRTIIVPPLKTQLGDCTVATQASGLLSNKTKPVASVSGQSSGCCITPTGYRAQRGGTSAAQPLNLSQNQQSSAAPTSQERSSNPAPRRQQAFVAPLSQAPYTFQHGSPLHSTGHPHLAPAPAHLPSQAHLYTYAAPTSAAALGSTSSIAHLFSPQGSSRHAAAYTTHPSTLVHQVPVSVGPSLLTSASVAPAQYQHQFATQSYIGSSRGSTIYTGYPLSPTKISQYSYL
# Serine/threonine-protein kinase Nek3 (Homo sapiens), sequence (P51956 whole entry, the tested form may be a part): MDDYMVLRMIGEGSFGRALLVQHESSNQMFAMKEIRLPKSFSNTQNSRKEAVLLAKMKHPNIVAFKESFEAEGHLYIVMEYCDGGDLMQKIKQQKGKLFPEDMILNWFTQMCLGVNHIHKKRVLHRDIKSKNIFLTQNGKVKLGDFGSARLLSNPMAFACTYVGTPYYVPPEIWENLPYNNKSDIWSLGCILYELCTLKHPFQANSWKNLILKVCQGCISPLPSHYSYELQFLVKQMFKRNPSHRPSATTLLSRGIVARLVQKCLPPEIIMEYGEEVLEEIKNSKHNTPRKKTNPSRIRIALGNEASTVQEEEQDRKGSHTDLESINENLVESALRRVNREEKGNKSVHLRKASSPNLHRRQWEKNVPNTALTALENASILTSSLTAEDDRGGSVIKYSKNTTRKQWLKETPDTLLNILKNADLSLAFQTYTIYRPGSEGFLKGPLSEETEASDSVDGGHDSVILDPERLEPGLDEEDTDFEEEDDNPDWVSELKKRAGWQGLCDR
# Proto-oncogene tyrosine-protein kinase ROS (Homo sapiens), sequence (P08922 whole entry, the tested form may be a part): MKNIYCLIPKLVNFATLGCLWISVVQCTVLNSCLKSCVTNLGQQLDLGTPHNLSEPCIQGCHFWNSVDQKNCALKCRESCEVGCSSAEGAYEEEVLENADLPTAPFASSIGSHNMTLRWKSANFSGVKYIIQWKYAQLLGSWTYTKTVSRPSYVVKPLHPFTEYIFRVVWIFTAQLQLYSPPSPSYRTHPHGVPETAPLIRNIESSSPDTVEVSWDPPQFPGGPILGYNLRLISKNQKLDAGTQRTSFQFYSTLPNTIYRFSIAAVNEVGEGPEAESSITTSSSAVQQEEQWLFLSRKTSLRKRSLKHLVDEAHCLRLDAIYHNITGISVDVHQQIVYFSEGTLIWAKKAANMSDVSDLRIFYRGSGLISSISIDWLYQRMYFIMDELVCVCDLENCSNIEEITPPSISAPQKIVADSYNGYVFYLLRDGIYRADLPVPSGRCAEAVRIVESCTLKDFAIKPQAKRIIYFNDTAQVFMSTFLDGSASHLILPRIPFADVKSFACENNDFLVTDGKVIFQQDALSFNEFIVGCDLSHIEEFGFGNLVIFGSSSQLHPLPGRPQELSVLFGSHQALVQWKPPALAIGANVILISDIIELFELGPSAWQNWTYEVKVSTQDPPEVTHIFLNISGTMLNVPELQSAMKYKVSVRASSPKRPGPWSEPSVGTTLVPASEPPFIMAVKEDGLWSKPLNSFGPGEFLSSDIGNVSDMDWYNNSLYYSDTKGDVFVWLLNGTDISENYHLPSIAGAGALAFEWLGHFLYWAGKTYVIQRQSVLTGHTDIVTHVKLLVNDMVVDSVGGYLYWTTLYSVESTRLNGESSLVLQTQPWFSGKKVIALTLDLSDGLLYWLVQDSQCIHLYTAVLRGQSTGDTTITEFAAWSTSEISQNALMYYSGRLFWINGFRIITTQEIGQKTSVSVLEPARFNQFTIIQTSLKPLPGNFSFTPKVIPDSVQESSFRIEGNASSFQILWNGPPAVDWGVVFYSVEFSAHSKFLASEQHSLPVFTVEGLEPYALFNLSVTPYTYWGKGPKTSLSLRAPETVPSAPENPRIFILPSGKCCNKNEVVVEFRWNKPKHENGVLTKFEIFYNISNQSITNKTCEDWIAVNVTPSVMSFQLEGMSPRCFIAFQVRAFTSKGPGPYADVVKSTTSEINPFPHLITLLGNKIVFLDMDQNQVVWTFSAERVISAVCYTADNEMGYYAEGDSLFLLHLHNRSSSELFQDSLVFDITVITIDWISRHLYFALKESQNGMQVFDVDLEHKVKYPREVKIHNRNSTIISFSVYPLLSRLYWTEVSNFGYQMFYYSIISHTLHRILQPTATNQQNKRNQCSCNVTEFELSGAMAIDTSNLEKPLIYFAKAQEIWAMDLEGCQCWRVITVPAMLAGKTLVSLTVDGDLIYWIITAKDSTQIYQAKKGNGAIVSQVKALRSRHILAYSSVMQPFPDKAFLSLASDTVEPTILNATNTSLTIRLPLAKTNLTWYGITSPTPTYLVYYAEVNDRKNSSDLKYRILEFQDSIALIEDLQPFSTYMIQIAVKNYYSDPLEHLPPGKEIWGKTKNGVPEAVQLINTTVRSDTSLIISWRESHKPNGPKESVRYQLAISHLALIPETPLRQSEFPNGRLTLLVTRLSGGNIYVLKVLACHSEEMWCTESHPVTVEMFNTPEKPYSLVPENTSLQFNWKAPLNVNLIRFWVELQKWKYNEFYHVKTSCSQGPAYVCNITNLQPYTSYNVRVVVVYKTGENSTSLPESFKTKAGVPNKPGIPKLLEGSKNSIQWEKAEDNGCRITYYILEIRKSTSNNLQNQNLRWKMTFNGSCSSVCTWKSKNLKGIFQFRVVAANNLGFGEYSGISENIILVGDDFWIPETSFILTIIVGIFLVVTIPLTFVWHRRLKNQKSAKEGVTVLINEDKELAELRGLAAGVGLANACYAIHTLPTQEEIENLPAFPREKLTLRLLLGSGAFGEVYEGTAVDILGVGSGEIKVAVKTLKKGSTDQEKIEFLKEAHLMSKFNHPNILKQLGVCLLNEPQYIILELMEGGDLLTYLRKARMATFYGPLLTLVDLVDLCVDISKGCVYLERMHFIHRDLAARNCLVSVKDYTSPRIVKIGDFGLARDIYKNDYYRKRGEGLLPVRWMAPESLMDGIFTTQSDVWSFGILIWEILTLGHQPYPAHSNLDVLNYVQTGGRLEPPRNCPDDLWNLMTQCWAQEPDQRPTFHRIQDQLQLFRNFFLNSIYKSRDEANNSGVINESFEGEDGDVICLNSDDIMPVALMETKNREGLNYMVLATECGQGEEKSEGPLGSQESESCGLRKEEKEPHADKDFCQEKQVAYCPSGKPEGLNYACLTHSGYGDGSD
structure (smiles),measurement,setting,value
O=C(Nc1cc(-c2cn(CCNc3c4c(nc5ccccc35)CCCC4)nn2)ccn1)Nc1cccc2c1C1CCCCN1C2=O (racemic),Activity,[1],78%
same,Activity,[2],100%
same,Activity,[3],24%
same,Activity,[4],77%
same,Activity,[5],53%
same,Activity,[6],67%
same,Activity,[7],1.6%
same,Activity,[8],43%
same,Activity,[9],0.28%
same,Activity,[10],100%
same,Activity,[11],63%
same,Activity,[12],12%
same,Activity,[13],69%
same,Activity,[14],40%
same,Activity,[15],84%
same,Activity,[16],16%
same,Activity,[17],80%
same,Activity,[18],92%
same,Activity,[19],100%
same,Activity,[20],82%
same,Activity,[21],51%
same,Activity,[22],38%
same,Activity,[23],100%
same,Activity,[24],60%
same,Papp A→B,[25],11.1 ×10⁻⁶ cm/s
